# Laboratory results taken from ChEMBL document CHEMBL1140395, “Diamino-C,N-diarylpyridine positional isomers as inhibitors of lysophosphatidic acid acyltransferase-beta” (Bioorg Med Chem Lett, 2005).
# Several values for one entry are separate records, joined by “and”; a condition that tells them apart may be missing. Identical values can stand only once.
# Target: T1, 1-acyl-sn-glycerol-3-phosphate acyltransferase beta (Homo sapiens, UniProt O15120)
# T1 sequence (O15120 whole entry): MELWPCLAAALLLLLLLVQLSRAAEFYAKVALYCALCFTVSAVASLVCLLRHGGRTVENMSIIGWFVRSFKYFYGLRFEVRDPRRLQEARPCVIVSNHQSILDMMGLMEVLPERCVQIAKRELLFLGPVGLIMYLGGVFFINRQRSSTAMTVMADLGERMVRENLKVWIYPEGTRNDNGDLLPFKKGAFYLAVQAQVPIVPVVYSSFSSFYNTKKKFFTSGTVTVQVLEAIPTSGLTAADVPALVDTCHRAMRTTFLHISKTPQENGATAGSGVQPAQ
# Test: Inhibitory activity against Lysophosphatidic acid acyltransferase-beta enzyme over-expressed in Sf9 insect cell membrane
row,Compound,IC50
1,CCOc1ccc(Cl)cc1-c1nc(N)nc(Nc2ccc(Cl)cc2)n1,260 nM
2,COc1ccc(Cl)cc1-c1cc(Nc2ccc(C)cc2)cc(N)n1,> 40000 nM
3,COc1ccc(Cl)cc1-c1nc(N)nc(Nc2ccc(Cl)cc2)n1,70 nM and 45 nM
4,COc1ccc(Cl)cc1-c1cc(N)nc(Nc2ccc(Cl)cc2)n1,2050 nM
